Values of other authors, collected in patent US20260007589A1, “METHOD FOR DYEING KERATINOUS MATERIAL COMPRISING THE USE OF AN ORGANOSILICON COMPOUND, AN EFFECT PIGMENT, AND A FILM-FORMING POLYMER III” (Henkel AG & Co. KGaA, priority 2019, published 2026).
Where two headings read alike, the source gives them in different places.

solubility in water (at 25° C.) | SMILES | solubility in water (25° C.)
– | O=C([O-])c1c(Cl)c(Cl)c(Cl)c(Cl)c1-c1c2c(Br)cc(=O)c(Br)c-2oc2c(Br)c(O)cc(Br)c12.O=C([O-])c1c(Cl)c(Cl)c(Cl)c(Cl)c1-c1c2c(Br)cc(=O)c(Br)c-2oc2c(Br)c(O)cc(Br)c12.[Na+].[Na+] [Acid Red 92, disodium salt of 3,4,5,6-tetrachloro-2-(1,4,5,8-tetrabromo-6-hydroxy-3-oxoxanthen-9-yl)benzoic acid] | greater than 10 g/L
– | O=S(=O)([O-])c1ccc(N=Nc2c(O)ccc3ccccc23)cc1.[Na+] [Acid Orange 7, sodium salt of 4-[(2-hydroxy-1-naphthyl)azo]benzene sulphonate] | more than 7 g/L
highly soluble in water | O=C([O-])C1=NN(c2ccc(S(=O)(=O)[O-])cc2)C(=O)C1N=Nc1ccc(S(=O)(=O)[O-])cc1.[Na+].[Na+].[Na+] (centres unmarked) [Acid Yellow 23, trisodium salt of 4,5-dihydro-5-oxo-1-(4-sulfophenyl)-4-((4-sulfophenyl)azo)-1H-pyrazole-3-carboxylic acid] | –
– | CCN(Cc1cccc(S(=O)(=O)[O-])c1)c1ccc(C(=C2C=CC(=[N+](CC)Cc3cccc(S(=O)(=O)[O-])c3)C=C2)c2ccccc2S(=O)(=O)[O-])cc1.[Na+].[Na+] [Acid Blue 9] | more than 20 % by weight
– | Nc1cc(S(=O)(=O)[O-])cc2cc(S(=O)(=O)[O-])c(N=Nc3ccccc3)c(O)c12.[Na+].[Na+] [Acid Red 33, disodium salt of 5-amino-4-hydroxy-3-(phenylazo)-naphthalene-2,7-disulphonate] | 2.5 g/L
